Values after ≈ are worked out from the molar mass of the structure shown. Like-named read-outs stand apart in the source and are kept apart here.
How the values were obtained:
[1] = target: T1, beta-catenin/TCF4 engagement (Homo sapiens, UniProt P35222); assay: Nano-BRET target engagement assay (B-cat-Halo & TCF4-Luc in HEK293 cells); type: cell-based; details: for inhibition at 10 µM: read-out: NanoBRET % inh @ 10 uM
T1 construct: expressed in transfected cells; host or cells: HEK293
T1 sequence (P35222 1-781): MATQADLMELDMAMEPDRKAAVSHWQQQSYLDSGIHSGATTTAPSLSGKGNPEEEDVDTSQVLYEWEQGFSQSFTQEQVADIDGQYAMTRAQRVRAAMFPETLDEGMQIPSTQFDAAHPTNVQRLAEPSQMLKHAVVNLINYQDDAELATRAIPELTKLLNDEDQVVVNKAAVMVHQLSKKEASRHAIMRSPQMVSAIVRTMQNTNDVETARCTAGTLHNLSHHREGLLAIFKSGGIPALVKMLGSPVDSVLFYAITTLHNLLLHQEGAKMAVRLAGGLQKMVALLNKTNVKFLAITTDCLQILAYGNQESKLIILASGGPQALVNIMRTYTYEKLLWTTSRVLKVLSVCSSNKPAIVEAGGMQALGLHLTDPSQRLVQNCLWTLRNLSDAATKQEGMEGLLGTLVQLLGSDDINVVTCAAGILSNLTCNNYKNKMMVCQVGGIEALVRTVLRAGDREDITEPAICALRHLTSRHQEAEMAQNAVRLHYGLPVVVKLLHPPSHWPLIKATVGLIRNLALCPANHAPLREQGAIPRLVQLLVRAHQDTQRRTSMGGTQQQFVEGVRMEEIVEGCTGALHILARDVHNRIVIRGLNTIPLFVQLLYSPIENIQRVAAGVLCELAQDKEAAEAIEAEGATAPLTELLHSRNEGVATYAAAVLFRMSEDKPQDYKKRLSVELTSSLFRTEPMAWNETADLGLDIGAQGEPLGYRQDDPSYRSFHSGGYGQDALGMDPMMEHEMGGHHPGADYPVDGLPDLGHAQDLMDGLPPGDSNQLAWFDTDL

Solubility in PBS = type: physicochemical
In short: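 Read-out is the HPLC peak area of the supernatant from ultracentrifuged PBS solution, scaled against a 50 μM peptide DMSO injection; value reported as [(PBS area)/(DMSO area)]*50 uM.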

CHI Log D procedure = type: physicochemical; details: for CHI Log D: pH 7.4; for chromatographic logD: pH 7.4, CHI Log D
[2] = target: T2, full-length beta-Catenin (Uniprot ID P35222) (Homo sapiens, UniProt P35222); assay: Fluorescence polarization IC50 (beta-catenin / 5FAM-TCF4 10-53 competition); type: binding
T2 construct: 10 nM full-length beta-Catenin (Uniprot ID P35222)
T2 sequence (P35222 1-781): T1 sequence (P35222 1-781)

[3] = absolute IC50, read-out: NanoBRET Abs IC50
[4] = fluorescence polarization, read-out: beta-Catenin FP IC50

Row | Compound | IC50 [1, 3] [nM] | Solubility (Solubility in PBS) [µM] | CHI Log D (CHI Log D procedure) | IC50 [2, 4] [nM] | IC50 ([2]; read-out: FP EC50) [nM] | inhibition at 10 µM ([1]; HEK293, @ 10 uM) [%] | IC50 ([1]; read-out: NanoBRET Abs IC50) [nM] | IC50 ([2]; read-out: beta-Catenin FP IC50) [nM] | Solubility (Solubility in PBS; Solubility (uM)) [µM] | chromatographic logD (CHI Log D procedure) | inhibition at 10 µM ([1]; HEK293, 10 uM) [%] | IC50 ([1]; read-out: NanoBRET IC50) [nM]
1 | CC(=O)N1CCC[C@]12CC=CCCCC1(CCCC=CCCCCCC[C@@](C)(C(=O)N[C@@H](Cc3ccccc3)C(=O)N[C@@H](Cc3csc4ccccc34)C(=O)N[C@@H](CCC(N)=O)C(=O)N[C@@H](C)C(N)=O)NC(=O)[C@H](CC(N)=O)NC(=O)[C@H](Cc3ccccc3)NC(=O)[C@H](C)NC(=O)[C@H](C)NC(=O)[C@H](CCC(=O)O)NC(=O)[C@H](CC(=O)O)NC1=O)NC(=O)[C@H](CC(C)C)NC(=O)[C@H](CC(=O)O)NC2=O (stereo partly drawn) [I-730, Ac-PL3-Asp-Leu-B5-Asp-Glu-Ala-Ala-Phe-Asn-S8-Phe-BztA-Gln-Ala-NH2] | 11200 | 44 (≈ 85.4 µg/mL) | 2.377 | 35 | 35 |  |  |  |  |  |  | 
2 | CC(=O)N1CCC[C@]12CC=CCCCC1(CCCC=CCCCCCC[C@@](C)(C(=O)N[C@@H](Cc3ccccc3)C(=O)N[C@@H](Cc3csc4ccccc34)C(=O)N[C@@H](CO)C(N)=O)NC(=O)[C@H](CC(N)=O)NC(=O)[C@H](Cc3ccccc3)NC(=O)[C@H](C)NC(=O)[C@H](C)NC(=O)[C@H](CCC(=O)O)NC(=O)[C@H](CC(=O)O)NC1=O)NC(=O)[C@H](CC(C)C)NC(=O)[C@H](CC(=O)O)NC2=O (stereo partly drawn) [I-751, Ac-PL3-Asp-Leu-B5-Asp-Glu-Ala-Ala-Phe-Asn-S8-Phe-BztA-Ser-NH2] | 7100 | 48 (≈ 87.7 µg/mL) | 2.513 | 29 | 29 |  |  |  |  |  |  | 
3 | COc1ccccc1C[C@H](NC(=O)[C@]1(C)CCCCCCC=CCCCC2(CCCC=CC[C@]3(CCCN3C(C)=O)C(=O)N[C@@H](CC(=O)O)C(=O)N[C@@H](C)C(=O)N2)C(=O)N[C@@H](CC(=O)O)C(=O)N[C@@H](CCC(=O)O)C(=O)N[C@@H](C)C(=O)N[C@@H](C)C(=O)N[C@@H](Cc2ccccc2)C(=O)N[C@@H](CC(N)=O)C(=O)N1)C(=O)N[C@@H](Cc1csc2ccccc12)C(=O)N[C@@H](CCC(N)=O)C(N)=O (stereo partly drawn) [I-437, Ac-PL3-Asp-Ala-B5-Asp-Glu-Ala-Ala-Phe-Asn-S8-2OMeF-BztA-Gln-NH2] | 17500 |  |  | 26 |  |  |  |  | 44 (≈ 81.7 µg/mL) | 2 |  | 
4 | CC(=O)N1CCC[C@]12CC=CCCCC1(CCCC=CCCCOC(=O)N3CC[C@@](C(=O)N[C@@H](Cc4ccsc4)C(=O)N[C@@H](Cc4csc5ccccc45)C(=O)N[C@@H](CCC(N)=O)C(N)=O)(C3)NC(=O)[C@H](CC(N)=O)NC(=O)[C@H](Cc3ccccc3)NC(=O)[C@H](CCCCNC(=O)CCc3cccc4ccccc34)NC(=O)[C@H](C)NC(=O)[C@H](CC(=O)O)NC(=O)[C@H](CC(=O)O)NC1=O)NC(=O)[C@H](CC(C)(C)C)NC(=O)[C@H](CC(=O)O)NC2=O (stereo partly drawn) [I-884, Ac-PL3-Asp-Npg-B5-Asp-Asp-Ala-[1NapPr]Lys-Phe-Asn-PyrS2-3Thi-BztA-Gln-NH2] |  |  |  |  |  |  | > 20000 | 14 | 34 (≈ 73.4 µg/mL) | 2.11 |  | 
5 | CC(=O)N1CCC[C@]12CC=CCCCC1(CCCC=CCCCOC(=O)N3CC[C@@](C(=O)N[C@@H](Cc4ccsc4)C(=O)N[C@@H](Cc4csc5ccccc45)C(=O)N[C@@H](Cc4c[nH]cn4)C(=O)N[C@H](C)C(N)=O)(C3)NC(=O)[C@H](CC(N)=O)NC(=O)[C@H](Cc3ccccc3)NC(=O)[C@H](C)NC(=O)[C@H](C)NC(=O)[C@H](CC(=O)O)NC(=O)[C@H](CC(=O)O)NC1=O)NC(=O)[C@H](CC(C)(C)C)NC(=O)[C@H](CC(=O)O)NC2=O (stereo partly drawn) [I-823, Ac-PL3-Asp-Npg-B5-Asp-Asp-Ala-Ala-Phe-Asn-PyrS2-3Thi-BztA-His-dAla-NH2] |  |  |  |  |  |  | 18300 | 5 | 32 (≈ 63.9 µg/mL) | 2.09 | 37.5 | > 10000

The remaining lines, values ahead:

Row | IC50 [1, 3] [nM] | Solubility (Solubility in PBS) [µM] | CHI Log D (CHI Log D procedure) | IC50 [2, 4] [nM] | IC50 ([2]; read-out: FP EC50) [nM] | inhibition at 10 µM ([1]; HEK293, @ 10 uM) [%] | IC50 ([1]; read-out: NanoBRET Abs IC50) [nM] | IC50 ([2]; read-out: beta-Catenin FP IC50) [nM] | Solubility (Solubility in PBS; Solubility (uM)) [µM] | chromatographic logD (CHI Log D procedure) | inhibition at 10 µM ([1]; HEK293, 10 uM) [%] | IC50 ([1]; read-out: NanoBRET IC50) [nM] | Compound
6 | > 20000 | 47 (≈ 87.6 µg/mL) | 2.374 | 36 | 36 |  |  |  |  |  |  |  | CC(=O)N1CCC[C@]12CC=CCCCC1(CCCC=CCCCCCC[C@@](C)(C(=O)N[C@@H](Cc3ccccc3)C(=O)N[C@@H](Cc3csc4ccccc34)C(=O)N[C@@H](Cc3c[nH]cn3)C(N)=O)NC(=O)[C@H](CC(N)=O)NC(=O)[C@H](Cc3ccccc3)NC(=O)[C@H](C)NC(=O)[C@H](C)NC(=O)[C@H](CC(=O)O)NC(=O)[C@H](CC(=O)O)NC1=O)NC(=O)[C@H](CC(C)C)NC(=O)[C@H](CC(=O)O)NC2=O (stereo partly drawn) [I-564, Ac-PL3-Asp-Leu-B5-Asp-Asp-Ala-Ala-Phe-Asn-S8-Phe-BztA-His-NH2]
7 | 30000 | 40 (≈ 71.4 µg/mL) | 3.109 | 36 | 685 |  |  |  |  |  |  |  | CC(=O)N1CCC[C@]12CC=CCCCC1(CCCC=CCCCCCC[C@@](C)(C(=O)N[C@@H](Cc3ccccc3)C(=O)N[C@@H](Cc3csc4ccccc34)C(N)=O)NC(=O)[C@H](CCCNC(N)=O)NC(=O)[C@H](Cc3ccccc3)NC(=O)[C@H](C)NC(=O)[C@H](C)NC(=O)[C@H](CCC(=O)O)NC(=O)[C@H](CC(=O)O)NC1=O)NC(=O)[C@H](CC(C)C)NC(=O)[C@H](CC(=O)O)NC2=O (stereo partly drawn) [I-629, Ac-PL3-Asp-Leu-B5-Asp-Glu-Ala-Ala-Phe-Cit-S8-Phe-BztA-NH2]
8 |  | 47 (≈ 91.2 µg/mL) | 2.092 |  | 7 | 5.1 | > 20000 | 6 |  |  |  |  | CC(=O)N1CCC[C@]12CC=CCCCC1(CCCC=CCCCCOC(=O)N3CC[C@@](C(=O)N[C@@H](Cc4ccsc4)C(=O)N[C@@H](Cc4csc5ccccc45)C(=O)N[C@@H](Cc4c[nH]cn4)C(N)=O)(C3)NC(=O)[C@H](CC(N)=O)NC(=O)[C@H](Cc3ccccc3)NC(=O)[C@H](C)NC(=O)[C@H](C)NC(=O)[C@H](CC(=O)O)NC(=O)[C@H](CC(=O)O)NC1=O)NC(=O)[C@H](CC(C)(C)C)NC(=O)[C@H](CC(=O)O)NC2=O (stereo partly drawn) [I-775, Ac-PL3-Asp-Npg-B5-Asp-Asp-Ala-Ala-Phe-Asn-PyrS3-3Thi-BztA-His-NH2]
9 |  |  |  |  |  |  | 18200 | 6 | 38 (≈ 75.9 µg/mL) | 2.1 | 30.8 |  | CC(=O)N1CCC[C@]12CC=CCCCC1(CCCC=CCCCOC(=O)N3CC[C@@](C(=O)N[C@@H](Cc4ccsc4)C(=O)N[C@@H](Cc4csc5ccccc45)C(=O)N[C@@H](Cc4c[nH]cn4)C(=O)N[C@@H](C)C(N)=O)(C3)NC(=O)[C@H](CC(N)=O)NC(=O)[C@H](Cc3ccccc3)NC(=O)[C@H](C)NC(=O)[C@H](C)NC(=O)[C@H](CC(=O)O)NC(=O)[C@H](CC(=O)O)NC1=O)NC(=O)[C@H](CC(C)(C)C)NC(=O)[C@H](CC(=O)O)NC2=O (stereo partly drawn) [I-820, Ac-PL3-Asp-Npg-B5-Asp-Asp-Ala-Ala-Phe-Asn-PyrS2-3Thi-BztA-His-Ala-NH2]
10 | 11500 |  |  |  |  |  |  | 5 | 44 (≈ 84.4 µg/mL) | 2.05 |  |  | CC(=O)N1CCC[C@]12CC=CCCCC1(CCCC=CCCCOC(=O)N3CC[C@@](C(=O)N[C@@H](Cc4ccccc4F)C(=O)N[C@@H](Cc4csc5ccccc45)C(=O)N[C@@H](CCC(N)=O)C(N)=O)(C3)NC(=O)[C@H]([C@@H](C)O)NC(=O)[C@H](Cc3ccccc3)NC(=O)[C@H](C)NC(=O)[C@H](C)NC(=O)[C@H](CC(=O)O)NC(=O)[C@H](CC(=O)O)NC1=O)NC(=O)[C@H](CC(C)(C)C)NC(=O)[C@H](CC(=O)O)NC2=O (stereo partly drawn) [I-1021, Ac-PL3-Asp-Npg-B5-Asp-Asp-Ala-Ala-Phe-Thr-PyrS2-2FF-BztA-Gln-NH2]
11 |  |  |  |  |  |  | 18000 | 6 | 39 (≈ 74.7 µg/mL) | 2.17 |  |  | CC(=O)N1CCC[C@]12CC=CCCCC1(CCCC=CCCCOC(=O)N3CC[C@@](C(=O)N[C@@H](Cc4ccsc4)C(=O)N[C@@H](Cc4csc5ccccc45)C(=O)N[C@@H](Cc4c[nH]cn4)C(N)=O)(C3)NC(=O)[C@H]([C@@H](C)O)NC(=O)[C@H](Cc3ccccc3)NC(=O)[C@H](C)NC(=O)[C@H](C)NC(=O)[C@H](CC(=O)O)NC(=O)[C@H](CC(=O)O)NC1=O)NC(=O)[C@H](CC(C)(C)C)NC(=O)[C@H](CC(=O)O)NC2=O (stereo partly drawn) [I-810, Ac-PL3-Asp-Npg-B5-Asp-Asp-Ala-Ala-Phe-Thr-PyrS2-3Thi-BztA-His-NH2]

Source: patent US20240116985A1, “STAPLED PEPTIDES AND METHODS THEREOF” (priority 2020, published 2024)
